Results published in patent US20260284080A1 (priority 2025, published 2026).

Assay: physchem
Format: physicochemical
Description: Abiraterone acetate is a white to off-white, non-hygroscopic, crystalline powder.

pKa: 5.19
SMILES: CC(=O)O[C@H]1CC[C@@]2(C)C(=CC[C@@H]3[C@@H]2CC[C@]2(C)C(c4cccnc4)=CC[C@@H]32)C1 [abiraterone acetate, (3B)-17-(3-pyridinyl) androsta-5,16-dien-3-yl acetate]
